≈ marks a conversion by molar mass, not a printed value.
What was measured:
[1] = test system: Escherichia coli; conditions: several bacteria such as Escherichia coli; U.S. Pat. No. 7,678,791 B2; cited from earlier work
[2] = test system: Bacteroides thetaiotaomicron (MET^R) MMX 3409; test: microbe, parasite or virus in culture; type: cell-based; conditions: Bacteroides thetaiotaomicron (MET^R) MMX 3409; anaerobic, 35° C., 42-48 hours; read-out: MIC
[3] = test system: Mobiluncus (curtisii subsp. curtisii) ATCC 35241; test: MIC, anaerobic agar dilution (CLSI); type: cell-based; conditions: ATCC35241, 35° C., 42-48 hours
[4] = test system: Peptostreptococcus (magnus) ATCC 14956; test: MIC, anaerobic agar dilution (CLSI); type: cell-based; conditions: Finegoldia magna, ATCC14956, 35° C., 42-48 hours
[5] = test system: Treponema denticola ATCC 35405; test: MIC, anaerobic agar dilution (CLSI); type: cell-based; conditions: ATCC35405, 35° C., 42-48 hours
[6] = test system: Prevotella intermedia ATCC 25611; test: MIC, anaerobic agar dilution (CLSI); type: cell-based; conditions: ATCC25611, 35° C., 42-48 hours
[7] = test system: Peptostreptococcus anaerobius ATCC 27337; test: MIC, anaerobic agar dilution (CLSI); type: cell-based; conditions: ATCC27337, 35° C., 42-48 hours
[8] = test system: Bacteroides vulgatus MMX 8348; test: MIC, anaerobic agar dilution (CLSI); type: cell-based; conditions: Phocaeicola vulgatus, MMX8348, 35° C., 42-48 hours
[9] = test system: Peptoniphilus asaccharolyticus ATCC 29743; test: MIC, anaerobic agar dilution (CLSI); type: cell-based; conditions: ATCC29743, 35° C., 42-48 hours
[10] = test system: Bacteroides vulgatus (MET^R) MMX 3490; test: MIC, anaerobic agar dilution (CLSI); type: cell-based; conditions: Phocaeicola vulgatus; Bacteroides vulgatus (MET^R) MMX 3490; anaerobic, 35° C., 42-48 hours; read-out: MIC
[11] = test system: Eubacterium (rectale) ATCC 33656; test: MIC, anaerobic agar dilution (CLSI); type: cell-based; conditions: Agathobacter rectalis, ATCC33656, 35° C., 42-48 hours
[12] = test system: Prevotella bivia (MET^R) MMX 3454; test: MIC, anaerobic agar dilution (CLSI); type: cell-based; conditions: 35° C., 42-48 hours
[13] = test system: Veionella parvula ATCC 17745; test: MIC, anaerobic agar dilution (CLSI); type: cell-based; conditions: 35° C., 42-48 hours
[14] = test system: Prevotella bivia MMX 3450; test: MIC, anaerobic agar dilution (CLSI); type: cell-based; conditions: MMX3450, 35° C., 42-48 hours
[15] = test system: Prevotella disiens MMX 3457; test: MIC, anaerobic agar dilution (CLSI); type: cell-based; conditions: MMX3457, 35° C., 42-48 hours
[16] = test system: Lactobacillus jensenii ATCC 25258; test: MIC, anaerobic agar dilution (CLSI); type: cell-based; conditions: ATCC25258; Lactobacillus jensenii ATCC 25258; anaerobic, 35° C., 42-48 hours; read-out: MIC
[17] = test system: Anaerococcus (Anaerococcus(prevotii)) ATCC 9321; test: MIC, anaerobic agar dilution (CLSI); type: cell-based; conditions: 35° C., 42-48 hours
[18] = test system: Clostridium perfringens (MET^R) MMX 3521; test: microbe, parasite or virus in culture; type: cell-based
[19] = test system: Fusobacterium nucleatum ATCC 10953; test: MIC, anaerobic agar dilution (CLSI); type: cell-based; conditions: ATCC10953, 35° C., 42-48 hours
[20] = test system: Bacteroides gracilis ATCC 33236; test: MIC, anaerobic agar dilution (CLSI); type: cell-based; conditions: Campylobacter gracilis, ATCC33236; Bacteroides gracilis ATCC 33236; anaerobic, 35° C., 42-48 hours; read-out: MIC
[21] = test system: Clostridium sporogenes ATCC 19404; test: MIC, anaerobic agar dilution (CLSI); type: cell-based; conditions: ATCC19404, 35° C., 42-48 hours
[22] = test system: Gardnerella vaginalis ATCC 14018; test: MIC, anaerobic agar dilution (CLSI); type: cell-based; conditions: ATCC14018, 35° C., 42-48 hours
[23] = test system: Atopobium vaginae BAA-55; test: MIC, anaerobic agar dilution (CLSI); type: cell-based; conditions: Fannyhessea vaginae, BAA55; Atopobium vaginae BAA-55; anaerobic, 35° C., 42-48 hours; read-out: MIC
[24] = test system: Bacteroides fragilis (QC) ATCC 25285; test: MIC, anaerobic agar dilution (CLSI); type: cell-based; conditions: ATCC25285, 35° C., 42-48 hours
[25] = test system: Mobiluncus (mulieris) ATCC 35243; test: MIC, anaerobic agar dilution (CLSI); type: cell-based; conditions: ATCC35243, 35° C., 42-48 hours
[26] = test system: Lactobacillus crispatus ATCC 33820; test: MIC, anaerobic agar dilution (CLSI); type: cell-based; conditions: ATCC33820; Lactobacillus crispatus ATCC 33820; anaerobic, 35° C., 42-48 hours; read-out: MIC
[27] = test system: Bifidobacterium (breve) ATCC 15698; test: MIC, anaerobic agar dilution (CLSI); type: cell-based; conditions: ATCC15698, 35° C., 42-48 hours
[28] = test system: Prevotella asaccharolytica (MET^R) MMX 3552; test: MIC, anaerobic agar dilution (CLSI); type: cell-based; conditions: 35° C., 42-48 hours
[29] = test system: Gardnerella vaginalis ATCC 49145; test: MIC, anaerobic agar dilution (CLSI); type: cell-based; conditions: ATCC49145, 35° C., 42-48 hours
[30] = test system: Peptococcus (niger) ATCC 27731; test: MIC, anaerobic agar dilution (CLSI); type: cell-based; conditions: ATCC27731, 35° C., 42-48 hours
[31] = test system: Bacteroides ovatus (MET^R) MMX 3504; test: MIC, anaerobic agar dilution (CLSI); type: cell-based; conditions: 35° C., 42-48 hours
[32] = test system: Actinomyces naeslundii ATCC 12104; test: MIC, anaerobic agar dilution (CLSI); type: cell-based; conditions: ATCC12104, 35° C., 42-48 hours
[33] = test system: Bacteroides fragilis (MET^R) MMX 3387; test: MIC, anaerobic agar dilution (CLSI); type: cell-based; conditions: Bacteroides fragilis (MET^R) MMX 3387; anaerobic, 35° C., 42-48 hours; read-out: MIC
[34] = test system: Bifidobacterium longum ATCC 15707; test: MIC, anaerobic agar dilution (CLSI); type: cell-based; conditions: ATCC15707, 35° C., 42-48 hours
[35] = test system: Gardnerella; test: MIC, agar dilution, Gardnerella; type: cell-based; conditions: Gardnerella as major BV bacteria
[36] = test system: Lactobacillus gasseri ATCC 33323; test: MIC, anaerobic agar dilution (CLSI); type: cell-based; conditions: ATCC33323; Lactobacillus gasseri ATCC 33323; anaerobic, 35° C., 42-48 hours; read-out: MIC
[37] = test system: Bacteroides uniformis MMX 1277; test: MIC, anaerobic agar dilution (CLSI); type: cell-based; conditions: MMX1277; Bacteroides uniformis MMX 1277; anaerobic, 35° C., 42-48 hours; read-out: MIC
[38] = test system: Prevotella bivia ATCC 29303; test: MIC, anaerobic agar dilution (CLSI); type: cell-based; conditions: ATCC29303, 35° C., 42-48 hours
[39] = test system: Prevotella disiens MMX 3446; test: MIC, anaerobic agar dilution (CLSI); type: cell-based; conditions: MMX3446, 35° C., 42-48 hours
[40] = test system: Fusobacterium nucleatum ATCC 25586; test: MIC, anaerobic agar dilution (CLSI); type: cell-based; conditions: ATCC25586, 35° C., 42-48 hours

## CO[C@H]1/C=C/O[C@@]2(C)Oc3c(C)c(O)c4c(c3C2=O)C2=NC3(CCN(CCn5c([N+](=O)[O-])cnc5C)CC3)NC2=C(NC(=O)/C(C)=C\C=C\[C@H](C)[C@H](O)[C@@H](C)[C@@H](O)[C@@H](C)[C@H](OC(C)=O)[C@@H]1C)C4=O [Compound I, 4-deoxy-3,4-[2-spiro-[2-(2-methyl-5-nitro-imidazole-1-yl)ethyl]-piperidine-4-yl]-(1-hydrogen)-imidazo-(2,5-dihydro) rifamycin S]
[1]
  antimicrobial activity: has antimicrobial activity
[2]
  MIC: 0.03 mg/L (≈ 0.0318 µM)
[3]
  MIC: 0.002 mg/L (≈ 0.00212 µM)
[4]
  MIC: 0.0005 mg/L (≈ 0.00053 µM)
[5]
  MIC: 0.002 mg/L (≈ 0.00212 µM)
[6]
  MIC: 0.0005 mg/L (≈ 0.00053 µM)
[7]
  MIC: 0.002 mg/L (≈ 0.00212 µM)
[8]
  MIC: 0.03 mg/L (≈ 0.0318 µM)
[9]
  MIC: 0.008 mg/L (≈ 0.00847 µM)
[10]
  MIC: 0.03 mg/L (≈ 0.0318 µM)
[11]
  MIC: 0.0005 mg/L (≈ 0.00053 µM)
[12]
  MIC: 0.015 mg/L (≈ 0.0159 µM)
[13]
  MIC: 2 mg/L (≈ 2.12 µM)
[14]
  MIC: 0.0005 mg/L (≈ 0.00053 µM)
[15]
  MIC: 0.008 mg/L (≈ 0.00847 µM)
[16]
  MIC: 0.008 mg/L (≈ 0.00847 µM)
[17]
  MIC: 0.0005 mg/L (≈ 0.00053 µM)
[18]
  MIC: 2 mg/L (≈ 2.12 µM)
[19]
  MIC: 0.12 mg/L (≈ 0.127 µM)
[20]
  MIC: 0.5 mg/L (≈ 0.53 µM)
[21]
  MIC: 0.015 mg/L (≈ 0.0159 µM)
[22]
  MIC: 0.004 mg/L (≈ 0.00424 µM)
[23]
  MIC: 0.03 mg/L (≈ 0.0318 µM)
[24]
  MIC: 0.03 mg/L (≈ 0.0318 µM)
[25]
  MIC: 0.001 mg/L (≈ 0.00106 µM)
[26]
  MIC: 4 mg/L (≈ 4.24 µM)
[27]
  MIC: 0.015 mg/L (≈ 0.0159 µM)
[28]
  MIC: 0.008 mg/L (≈ 0.00847 µM)
[29]
  MIC: 0.004 mg/L (≈ 0.00424 µM)
[30]
  MIC: 0.0005 mg/L (≈ 0.00053 µM)
[31]
  MIC: 0.12 mg/L (≈ 0.127 µM)
[32]
  MIC: 0.001 mg/L (≈ 0.00106 µM)
[33]
  MIC: 0.015 mg/L (≈ 0.0159 µM)
[34]
  MIC: 0.015 mg/L (≈ 0.0159 µM)
[35]
  MIC: 0.004 mg/L (≈ 0.00424 µM)
[36]
  MIC: 0.015 mg/L (≈ 0.0159 µM)
[37]
  MIC: 0.03 mg/L (≈ 0.0318 µM)
[38]
  MIC: 0.015 mg/L (≈ 0.0159 µM)
[39]
  MIC: 0.015 mg/L (≈ 0.0159 µM)
[40]
  MIC: 0.001 mg/L (≈ 0.00106 µM)
